How the values were obtained:
OVCAR-5 = assay: Growth inhibition of human OVCAR5 cells after 48 hrs by sulforhodamine B assay; type: functional; settings: OVCAR-5, 48 h
SK-MEL-5 [1] = assay: Growth inhibition of human SK-MEL-5 cells after 48 hrs by sulforhodamine B assay; type: functional; settings: SK-MEL-5, 48 h
ACHN = assay: Growth inhibition of human ACHN cells after 48 hrs by sulforhodamine B assay; type: functional
NCI-H522 = assay: Growth inhibition of human NCI-H522 cells after 48 hrs by sulforhodamine B assay; type: functional; settings: NCI-H522, 48 h
PC-3 = assay: Growth inhibition of human PC3 cells assessed as cell growth at 10 uM after 48 hrs by sulforhodamine B assay; type: functional; settings: PC-3, 48 h, read-out: Activity
KM12 [2] = assay: Growth inhibition of human KM12 cells assessed as cell growth at 10 uM after 48 hrs by sulforhodamine B assay; type: functional; settings: KM12, 48 h, read-out: Activity
KM12 [3] = assay: Growth inhibition of human KM12 cells after 48 hrs by sulforhodamine B assay; type: functional, cell-based; settings: KM12, 48 h
SR = assay: Growth inhibition of human SR cells after 48 hrs by sulforhodamine B assay; type: functional
SK-MEL-28 = assay: Growth inhibition of human SK-MEL-28 cells assessed as cell growth at 10 uM after 48 hrs by sulforhodamine B assay; type: functional; settings: SK-MEL-28, 48 h, read-out: Activity
UACC-257 = assay: Growth inhibition of human UACC257 cells after 48 hrs by sulforhodamine B assay; type: functional; settings: UACC-257, 48 h
NCI-H23 [4] = assay: Growth inhibition of human NCI-H23 cells assessed as cell growth at 10 uM after 48 hrs by sulforhodamine B assay; type: functional; settings: NCI-H23, 48 h, read-out: Activity
OVCAR-8 = assay: Growth inhibition of human OVCAR8 cells after 48 hrs by sulforhodamine B assay; type: functional; settings: OVCAR-8, 48 h
SW-620 [5] = assay: Growth inhibition of human SW620 cells assessed as cell growth at 10 uM after 48 hrs by sulforhodamine B assay; type: functional; settings: SW-620, 48 h, read-out: Activity
TK-10 = assay: Growth inhibition of human TK10 cells assessed as cell growth at 10 uM after 48 hrs by sulforhodamine B assay; type: functional; settings: TK-10, 48 h, read-out: Activity
RPMI-8226 = assay: Growth inhibition of human RPMI8226 cells assessed as cell growth at 10 uM after 48 hrs by sulforhodamine B assay; type: functional; settings: RPMI-8226, 48 h, read-out: Activity
HT-29 [6] = assay: Growth inhibition of human HT-29 cells after 48 hrs by sulforhodamine B assay; type: functional; settings: HT-29, 48 h
NCI-H23 [7] = assay: Growth inhibition of human NCI-H23 cells after 48 hrs by sulforhodamine B assay; type: functional; settings: NCI-H23, 48 h
RXF 393 = assay: Growth inhibition of human RXF393 cells after 48 hrs by sulforhodamine B assay; type: functional; settings: RXF 393, 48 h
HOP-92 = assay: Growth inhibition of human HOP92 cells assessed as cell growth at 10 uM after 48 hrs by sulforhodamine B assay; type: functional; settings: HOP-92, 48 h, read-out: Activity
CCRF-CEM = assay: Growth inhibition of human CCRF-CEM cells after 48 hrs by sulforhodamine B assay; type: functional
Malme-3M = assay: Growth inhibition of human MALME-3M cells assessed as cell growth at 10 uM after 48 hrs by sulforhodamine B assay; type: functional; settings: read-out: Activity
OVCAR-4 = assay: Growth inhibition of human OVCAR4 cells after 48 hrs by sulforhodamine B assay; type: functional; settings: OVCAR-4, 48 h
HOP-62 = assay: Growth inhibition of human HOP62 cells assessed as cell growth at 10 uM after 48 hrs by sulforhodamine B assay; type: functional; settings: HOP-62, 48 h, read-out: Activity
SK-MEL-5 [8] = assay: Growth inhibition of human SK-MEL-5 cells assessed as cell growth at 10 uM after 48 hrs by sulforhodamine B assay; type: functional; settings: SK-MEL-5, 48 h, read-out: Activity
A498 = assay: Growth inhibition of human A498 cells after 48 hrs by sulforhodamine B assay; type: functional, cell-based; settings: A498, 48 h
U-251 [9] = assay: Growth inhibition of human U251 cells assessed as cell growth at 10 uM after 48 hrs by sulforhodamine B assay; type: functional; settings: U-251, 48 h, read-out: Activity
CAKI-1 [10] = assay: Growth inhibition of human CAKI-1 cells assessed as cell growth at 10 uM after 48 hrs by sulforhodamine B assay; type: functional; settings: CAKI-1, 48 h, read-out: Activity
MCF7 = assay: Growth inhibition of human MCF7 cells after 48 hrs by sulforhodamine B assay; type: functional; settings: MCF7, 48 h
SW-620 [11] = assay: Growth inhibition of human SW620 cells after 48 hrs by sulforhodamine B assay; type: functional; settings: SW-620, 48 h
BT-549 = assay: Growth inhibition of human BT549 cells assessed as cell growth at 10 uM after 48 hrs by sulforhodamine B assay; type: functional; settings: BT-549, 48 h, read-out: Activity
CAKI-1 [12] = assay: Growth inhibition of human CAKI-1 cells after 48 hrs by sulforhodamine B assay; type: functional; settings: CAKI-1, 48 h
SN12C = assay: Growth inhibition of human SN12C cells assessed as cell growth at 10 uM after 48 hrs by sulforhodamine B assay; type: functional; settings: read-out: Activity
A549 = assay: Growth inhibition of human A549/ATCC cells assessed as cell growth at 10 uM after 48 hrs by sulforhodamine B assay; type: functional; settings: A549, 48 h, read-out: Activity
HT-29 [13] = assay: Growth inhibition of human HT-29 cells assessed as cell growth at 10 uM after 48 hrs by sulforhodamine B assay; type: functional; settings: HT-29, 48 h, read-out: Activity
U-251 [14] = assay: Growth inhibition of human U251 cells after 48 hrs by sulforhodamine B assay; type: functional; settings: U-251, 48 h
[15] = read-out: LC50 (the source's name)

## COc1cc(-c2nn(-c3cccc(NC(=O)Nc4cc(C(F)(F)F)cc(C(F)(F)F)c4)c3)cc2-c2ccncc2)ccc1Cl
OVCAR-5
  GI50: 937 nM
  LC50 (concentration killing 50% of cells): 12000 nM
  TGI: 2470 nM
SK-MEL-5 [1]
  GI50: 694 nM
  LC50 (concentration killing 50% of cells): 2670 nM
  TGI: 1360 nM
ACHN
  GI50: 491 nM
  TGI: 5720 nM
ACHN; [15]
  CC50: > 50000 nM
NCI-H522
  GI50: 623 nM
  LC50 (concentration killing 50% of cells): 6560 nM
  TGI: 1800 nM
PC-3
  growth at 10 µM: -55.2%
KM12 [2]
  growth at 10 µM: -14.8%
KM12 [3]
  GI50: 531 nM
  IC50: 530 nM
  TGI: 1340 nM
KM12 [3]; [15]
  CC50: 3390 nM
SR
  GI50: 1080 nM
  TGI: 3970 nM
SR; [15]
  CC50: > 50000 nM
SK-MEL-28
  growth at 10 µM: -28.9%
UACC-257
  GI50: 916 nM
  TGI: 2350 nM
UACC-257; [15]
  CC50: 26200 nM
NCI-H23 [4]
  growth at 10 µM: -3.3%
OVCAR-8
  GI50: 524 nM
  TGI: 3980 nM
OVCAR-8; [15]
  CC50: > 50000 nM
SW-620 [5]
  growth at 10 µM: -2.89%
TK-10
  growth at 10 µM: -26.7%
RPMI-8226
  growth at 10 µM: -11.7%
HT-29 [6]
  GI50: 702 nM
  TGI: 1610 nM
HT-29 [6]; [15]
  CC50: 3710 nM
NCI-H23 [7]
  GI50: 1090 nM
  LC50: 29600 nM
  TGI: 3340 nM
RXF 393
  GI50: 869 nM
  LC50 (concentration killing 50% of cells): 4900 nM
  TGI: 2060 nM
HOP-92
  growth at 10 µM: -50.2%
CCRF-CEM
  GI50: 498 nM
  LC50: > 50000 nM
  TGI: 2790 nM
Malme-3M
  growth at 10 µM: -10.7%
OVCAR-4
  GI50: 1120 nM
  LC50 (concentration killing 50% of cells): > 50000 nM
  TGI: 9640 nM
HOP-62
  growth at 10 µM: -77.6%
SK-MEL-5 [8]
  growth at 10 µM: -96.1%
A498
  GI50: 612 nM
  IC50: 610 nM
  TGI: 1900 nM
A498; [15]
  CC50: 7140 nM
U-251 [9]
  growth at 10 µM: -81.8%
CAKI-1 [10]
  growth at 10 µM: 18.5%
MCF7
  GI50: 933 nM
  LC50: > 50000 nM
  TGI: 10900 nM
SW-620 [11]
  GI50: 715 nM
  TGI: 1860 nM
SW-620 [11]; [15]
  CC50: 4870 nM
BT-549
  growth at 10 µM: -8.96%
CAKI-1 [12]
  GI50: 993 nM
  TGI: 3140 nM
CAKI-1 [12]; [15]
  CC50: 49300 nM
SN12C
  growth at 10 µM: -8.08%
A549
  growth at 10 µM: -23.8%
HT-29 [13]
  growth at 10 µM: -41.2%
U-251 [14]
  GI50: 590 nM
  LC50 (concentration killing 50% of cells): 3180 nM
  TGI: 1370 nM
